Patent publication US8138158B2, “Compositions and methods for therapy for diseases characterized by defective chloride transport” (Children's Hospital & Research Center at Oakland, priority 1997, dated 2012)

Columns and labels:
[1] = system: nasal potential difference; experiment: Nasal potential difference measurement in a human volunteer (Knowles protocol); assay type: in vivo; settings: L-ascorbic acid 100 μM in luminal perfusate; amiloride, chloride-free solution
Protocol: In vivo, chloride secretion may be assessed using measurements of nasal potential differences in a mammal, such as a human or a mouse. […] The nasal potential difference is measured as the electrical potential measured on the nasal mucosa with respect to a skin electrode placed on a slightly scratched skin part (see Alton et al., Eur. Respir. J. 3:922-926, 1990) or with respect to a subcutaneous needle (see Knowles et al., Hum. Gene Therapy 6:445-455, 1995). Nasal potential difference is evaluated in the presence and absence of test compound, and those compounds that results in a statistically significant increase in nasal potential difference stimulate chloride transport.
The effect of quercetin on nasal potential difference (PD) measurement in a healthy human volunteer was measured as described by Knowles et al., Hum. Gene Therapy 6:445-455, 1995.
Nasal potential difference measurement was performed on a human volunteer according to a protocol by Knowles et al., Hum. Gene Therapy 6:445-455, 1995. Addition of L-ascorbic acid (100 μM) to the luminal perfusate in the nose (in the presence of amiloride (blocks Na currents) and in chloride-free solution) hyperpolarized nasal potential difference (PD) by 6.3 mV (FIG. 17). […] Stimulation was reversed by washing out drugs with NaCl Ringer solution.

[2] = system: intracellular cAMP levels; experiment: Cyclic AMP measurements in Calu-3 cells (competitive immunoassay); assay type: cell-based, human
Protocol: Cyclic AMP measurements. […] Cellular cAMP levels were measured in non-acetylated samples using a competitive immunoassay for cAMP (R&D systems, Minneapolis, Minn.). The regulatory role of vitamin C on Cl ion channel activity was studied in Calu-3 airway cells which express large amounts of native CFTR as their major Cl conductance ([…]., Widdicombe, J. H. & Wine, J. J. (1994) Am. J. Physiol. 266, […]-[…]). […] Details of the single channel recording are illustrated in FIG. 20C. […] At negative potentials no channel openings were resolved indicating Cl-over-gluconate selectivity. Cyclic AMP is the major intracellular messenger for the activation of CFTR. We tested the possibility that L-ascorbic acid increased intracellular cAMP levels [cAMP], by either turning on cAMP production or preventing cAMP degradation. FIG. 20E compares whole cell cAMP levels of Calu-3 cells challenged with either increasing concentrations of L-ascorbic acid or the cAMP agonist forskolin.

[3] = system: wildtype CFTR-corrected CF15 monolayers; experiment: Short-circuit current across wildtype CFTR-corrected CF15 monolayers; assay type: cell-based, human
Protocol: Human airway cell culture. The human submucosal serous gland-like cell line Calu-3, the CF nasal epithelial cell line homozygous for ΔF508 CFTR (CF15) and human tracheal primary cultures (hTE) were cultured as described (Jefferson, D. M., Valentich, J. D., Marini, F. C., Grubman, S. A., Iannuzzi, M. C., Dorkin, H. L., Li, M., Klinger, K. W. & Welsh, M. J. (1990) Am. J. Physiol. 259, L496-L505. Sachs, L. A., Finkbeiner, W. E. & Widdicombe, J. H. (2003) In Vitro Cell Dev. Biol. Anim. 39, 56-62.). Wildtype CFTR-corrected CF15 cells were generated via adenovirus-mediated gene transfer. Growth media were nominally free of ascorbic acid (<10 μm, University Pathology Inc., Salt Lake City, Utah). For transepithelial measurements cells were grown on permeable filter inserts and used after 3 to 10 days.
Short-circuit current measurement. Calu-3 or CF15 cells were grown as monolayers, mounted in Ussing chambers and short-circuit current (ISC) was recorded as described (Illek, B. & Fischer, H. (1998) Am. J. Physiol. 275, L902-L910). At 20-50 second intervals, transepithelial voltage was clamped from zero to 2 mV and the transepithelial resistance (Rte) was calculated. A serosa-to-mucosa-directed Cl gradient was applied. Serosal Ussing chamber solution contained (in mM): 120 NaCl, 20 NaHCO3, 5 KHCO3, 1.2 NaH2PO4, 5.6 glucose, 2.5 CaCl2, 1.2 MgCl2. In mucosal Ussing chamber solutions, all Cl salts were exchanged for gluconate salts.
The CF15 cell line was used to determine whether ascorbate-stimulated Cl currents were solely mediated by the CFTR Cl conductance. The CF15 cell line is characterized by the absence of functional CFTR in the apical plasma membrane but the presence of other non-CFTR Cl conductances (Jefferson, D. M., Valentich, J. D., Marini, F. C., Grubman, S. A., Iannuzzi, M. C., Dorkin, H. L., Li, M., Klinger, K. W. & Welsh, M. J. (1990) Am. J. Physiol. 259, L496-L505). A concentration of L-ascorbic acid that lay within the upper plateau of the dose response curve (500 μm) was applied and ascorbate-stimulated Cl currents in CF15 vs. wildtype CFTR-corrected CF15 monolayers was compared (FIG. 23A). […] The defective response to L-ascorbic acid was reversed in wildtype CFTR-corrected CF15 epithelia such that ISC responded promptly to L-ascorbic acid (ΔISC=7.5±0.5 μA/cm^2, n=6). The ascorbate-stimulated current was further activated by the cAMP agonist forskolin and total stimulated ISC averaged 12.1±1.1 μA/cm^2 (FIG. 4B). The ascorbate-stimulated Cl current reached 60±15% of the forskolin-stimulated current in CFTR-corrected CF15 monolayers, which was close to the corresponding findings in Calu-3 monolayers (68%, see FIG. 21A). The absence of ascorbate-stimulated Cl currents in CF15 monolayers supports the notion that non-CFTR Cl conductances were not activated by L-ascorbic acid.
In this example, chloride currents stimulated by L-ascorbate or D-ascorbate were measured in CF15 versus. wildtype CFTR-corrected CF15 monolayers. A concentration of L-ascorbate (1 mM) or D-isoascorbate (300 μm) that lay within the upper plateau of the dose-response curve was applied to cells and the resulting chloride currents stimulated in CF15 versus wildtype CFTR-corrected CF15 monolayers were measured (FIG. 25 A-H). All experiments were performed in the presence of the sodium channel blocker amiloride. […]

## O=C1O[C@H](C(O)CO)C(O)=C1O (stereo partly drawn) [L-ascorbic acid, L-xyloascorbic acid]
[1]
  hyperpolarized nasal potential difference (PD) by: 6.3 mV
[2]; 300 μM L-ascorbate + 100 nM forskolin
  cAMP level stimulated by 100 nM forskolin: did not alter the elevated cAMP level
[2]; L-ascorbate from 100 μM to 10 mM, 15 min
  resting intracellular cAMP level: did not result in a detectable increase
[3]
  ascorbate-stimulated Cl current, % of the forskolin-stimulated current: 60±15%
[3]; L-ascorbate 1 mM, amiloride, n=6
  ΔIsc: 7.5±0.5 μA/cm2
[3]; L-ascorbic acid 500 μm, n=6
  ΔISC: 7.5±0.5 μA/cm^2
